Experimental findings from patent publication US20120028888A1, “APJ RECEPTOR COMPOUNDS” (priority 2008, published 2012) are described below.

The test addresses T1, Gi-coupled receptor APJ (HEK cells stably expressing the APJ receptor) (Homo sapiens, UniProt P35414).
T1 construct: expressed in transfected cells; host or cells: HEK cells stably expressing APJ
T1 sequence (P35414 1-380): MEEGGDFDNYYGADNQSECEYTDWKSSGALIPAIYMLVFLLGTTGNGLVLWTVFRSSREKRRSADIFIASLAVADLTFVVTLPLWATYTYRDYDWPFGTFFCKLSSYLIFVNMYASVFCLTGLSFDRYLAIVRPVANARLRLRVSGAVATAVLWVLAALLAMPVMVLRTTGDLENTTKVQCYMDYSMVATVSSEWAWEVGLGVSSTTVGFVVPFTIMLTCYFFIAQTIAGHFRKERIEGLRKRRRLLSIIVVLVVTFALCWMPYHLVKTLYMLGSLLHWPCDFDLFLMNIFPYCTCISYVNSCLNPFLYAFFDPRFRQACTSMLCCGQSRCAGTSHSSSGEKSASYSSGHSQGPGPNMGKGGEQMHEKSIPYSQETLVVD
As to the kind of experiment: HTRF cAMP assay: inhibition of NKH477 stimulated increase in cAMP. The test is classed as cell-based. The conditions noted are these: read-out: EC50 value (nM), SEM. The text has this:
HTRF (homogeneous time resolved fluorescence) is a technology developed by Cisbio Bioassays based on TR-FRET (time-resolved fluorescence resonance energy transfer). Cisbio Bioassays has developed a wide selection of HTRF-based assays compatible with whole cells, thereby enabling functional assays to run under more physiological conditions. The IP-One assays are competitive immunoassays using cryptate-labeled anti-IPI monoclonal antibody and d2-labeled IP1. IP1 is a relatively stable downstream metabolite of IP3, and accumulates in cells following Gq receptor activation.
cAMP kits based on a competitive immunoassay using cryptate-labeled anti-cAMP antibody and d2-labeled cAMP were used to assay the effects of APJ compounds of the present invention. This assay measures the increase in intracellular cAMP upon Gs-coupled receptor activation as well as decrease in forskolin (or a more soluble version of forskolin—NKH477) stimulated increase in cAMP upon Gi-coupled receptor activation.

Non-standard residues stand in square brackets, D forms with d. Residues, ends and D or L forms follow the SMILES beside them. ξ: configuration not given here. *: point of attachment. Palmitoyl = CCCCCCCCCCCCCCCC(=O)*; X1 = CCCCCCCCCCCOCCCC(=O)*; ξR = N=C(N)NCCCC(N)C(=O)O A value given as a limit tells only on which side of the number the result lay.

As usually defined, the EC50 is the midpoint of the concentration-response curve.

Take `CCCCCCCCCCCCCCCC(=O)N[C@H](C(=O)N[C@@H](CCCNC(=N)N)C(=O)N1CCC[C@H]1C(=O)N[C@H](C(=O)N[C@@H](C)C(=O)N[C@@H](CC(N)=O)C(=O)N[C@@H](C)C(=O)N[C@@H](CCCNC(=N)N)C(=O)N[C@@H](CC(C)C)C(=O)NC(CCCNC(=N)N)C(N)=O)C(C)C)C(C)C` (stereo partly drawn) [Compound 80] (Palmitoyl-VRPVANARL[ξR]-NH2): the EC50 is > 10000 nM.

For the compound `CCCCCCCCCCCCCCCC(=O)N[C@H](C(=O)N[C@H](C(=O)N[C@@H](Cc1ccccc1)C(=O)N[C@@H](CCCNC(=N)N)C(=O)N[C@@H](C)C(=O)N[C@@H](CO)C(=O)N[C@@H](CCCNC(=N)N)C(=O)N[C@@H](CCC(=O)O)C(=O)N[C@@H](CCCCN)C(=O)N[C@@H](CCCNC(=N)N)C(=O)N[C@@H](CCCNC(=N)N)C(=O)N[C@@H](CO)C(=O)N[C@@H](C)C(=O)N[C@@H](CC(=O)O)C(=O)N[C@H](C(=O)N[C@@H](Cc1ccccc1)C(=O)N[C@H](C(N)=O)[C@@H](C)CC)[C@@H](C)CC)C(C)C)[C@@H](C)O` [Compound 27] (Palmitoyl-TVFRASREKRRSADIFI-NH2), the EC50 lay within 501 to 1000 nM.

On to `CCCCCCCCCCCCCCCC(=O)N[C@H](C(=O)N[C@@H](CCCNC(=N)N)C(=O)N1CCC[C@H]1C(=O)N[C@H](C(=O)N[C@@H](C)C(=O)N[C@@H](CC(N)=O)C(=O)N[C@@H](C)C(=O)N[C@@H](CCCNC(=N)N)C(=O)N[C@@H](CC(C)C)C(N)=O)C(C)C)C(C)C` [Compound 81] (Palmitoyl-VRPVANARL-NH2), for which the EC50 was > 10000 nM.

On to `CCCCCCCCCCCCCCCC(=O)N[C@H](C(=O)N[C@@H](CCCNC(=N)N)C(=O)N1CCC[C@H]1C(=O)N[C@H](C(=O)N[C@@H](C)C(=O)N[C@@H](CC(N)=O)C(=O)N[C@@H](C)C(=O)N[C@@H](CCCNC(=N)N)C(=O)N[C@@H](CC(C)C)C(=O)N[C@@H](CCCNC(=N)N)C(=O)N[C@@H](CC(C)C)C(=O)N[C@@H](CCCNC(=N)N)C(=O)N[C@H](C(=O)N[C@@H](CO)C(=O)NCC(N)=O)C(C)C)C(C)C)C(C)C` [Compound 76] (Palmitoyl-VRPVANARLRLRVSG-NH2), for which the EC50 is > 10000 nM.

As for `CCCCCCCCCCCCCCCC(=O)N[C@H](C(=O)N[C@H](C(=O)N[C@@H](Cc1ccccc1)C(=O)N[C@@H](CCCNC(=N)N)C(=O)N[C@@H](CO)C(=O)N[C@@H](CO)C(=O)N[C@@H](CCCNC(=N)N)C(=O)N[C@@H](CCC(=O)O)C(=O)N[C@@H](CCCCN)C(=O)N[C@@H](CCCNC(=N)N)C(=O)N[C@@H](CCCNC(=N)N)C(=O)N[C@@H](CO)C(=O)N[C@@H](C)C(=O)N[C@@H](CC(=O)O)C(=O)N[C@H](C(=O)N[C@@H](Cc1ccccc1)C(=O)N[C@@H](C)C(N)=O)[C@@H](C)CC)C(C)C)[C@@H](C)O` [Compound 40] (Palmitoyl-TVFRSSREKRRSADIFA-NH2), the EC50 lay in the range of 501 to 1000 nM.

On to `CCCCCCCCCCCCCCCC(=O)N[C@H](C(=O)N[C@@H](CCCNC(=N)N)C(=O)N1CCC[C@H]1C(=O)N[C@H](C(=O)N[C@@H](C)C(=O)N[C@@H](CC(N)=O)C(=O)N[C@@H](C)C(=O)N[C@@H](CCCNC(=N)N)C(=O)N[C@@H](CC(C)C)C(=O)N[C@@H](CCCNC(=N)N)C(=O)N[C@@H](CC(C)C)C(=O)N[C@@H](CCCNC(=N)N)C(N)=O)C(C)C)C(C)C` [Compound 83] (Palmitoyl-VRPVANARLRLR-NH2), for which the EC50 was > 10000 nM.

For the compound `CCCCCCCCCCCCCCCC(=O)N[C@@H](CCCNC(=N)N)C(=O)N1CCC[C@H]1C(=O)N[C@H](C(=O)N[C@@H](C)C(=O)N[C@@H](CC(N)=O)C(=O)N[C@@H](C)C(=O)N[C@@H](CCCNC(=N)N)C(=O)N[C@@H](CC(C)C)C(=O)N[C@@H](CCCNC(=N)N)C(=O)N[C@@H](CC(C)C)C(=O)N[C@@H](CCCNC(=N)N)C(=O)N[C@H](C(=O)N[C@@H](CO)C(=O)NCC(N)=O)C(C)C)C(C)C` [Compound 75] (Palmitoyl-RPVANARLRLRVSG-NH2), the EC50 is > 10000 nM.

As for `CCCCCCCCCCCCCCCC(=O)N[C@H](C(=O)N[C@H](C(=O)N[C@@H](CCCNC(=N)N)C(=O)N1CCC[C@H]1C(=O)N[C@H](C(=O)N[C@@H](C)C(=O)N[C@@H](CC(N)=O)C(=O)N[C@@H](C)C(=O)N[C@@H](CCCNC(=N)N)C(=O)N[C@@H](CC(C)C)C(=O)N[C@@H](CCCNC(=N)N)C(=O)N[C@@H](CC(C)C)C(=O)N[C@@H](CCCNC(=N)N)C(=O)N[C@H](C(=O)N[C@@H](CO)C(=O)NCC(N)=O)C(C)C)C(C)C)C(C)C)[C@@H](C)CC` [Compound 77] (Palmitoyl-IVRPVANARLRLRVSG-NH2), the EC50 is > 10000 nM.

For `CCCCCCCCCCCCCCCC(=O)N[C@H](C(=O)N[C@@H](CCCNC(=N)N)C(=O)N1CCC[C@H]1C(=O)N[C@H](C(=O)N[C@@H](C)C(=O)N[C@@H](CC(N)=O)C(=O)N[C@@H](C)C(=O)N[C@@H](CCCNC(=N)N)C(=O)N[C@@H](CC(C)C)C(=O)NC(CCCNC(=N)N)C(=O)N[C@@H](CC(C)C)C(N)=O)C(C)C)C(C)C` (stereo partly drawn) [Compound 84] (Palmitoyl-VRPVANARL[ξR]L-NH2), the EC50 is > 10000 nM.

Turning to `CCCCCCCCCCCCCCCC(=O)N[C@H](C(=O)N[C@@H](CCCNC(=N)N)C(=O)N1CCC[C@H]1C(=O)N[C@H](C(=O)N[C@@H](C)C(=O)N[C@@H](CC(N)=O)C(=O)N[C@@H](C)C(=O)N[C@@H](CCCNC(=N)N)C(=O)N[C@@H](CC(C)C)C(=O)N[C@@H](CCCNC(=N)N)C(=O)N[C@@H](CC(C)C)C(=O)N[C@@H](CCCNC(=N)N)C(=O)N[C@H](C(=O)N[C@@H](CO)C(N)=O)C(C)C)C(C)C)C(C)C` [Compound 86] (Palmitoyl-VRPVANARLRLRVS-NH2), the EC50 is > 10000 nM.

Consider `CCCCCCCCCCCCCCCC(=O)N[C@H](C(=O)N[C@@H](C)C(=O)N[C@@H](Cc1ccccc1)C(=O)N[C@@H](CCCNC(=N)N)C(=O)N[C@@H](CO)C(=O)N[C@@H](CO)C(=O)N[C@@H](CCCNC(=N)N)C(=O)N[C@@H](CCC(=O)O)C(=O)N[C@@H](CCCCN)C(=O)N[C@@H](CCCNC(=N)N)C(=O)N[C@@H](CCCNC(=N)N)C(=O)N[C@@H](CO)C(=O)N[C@@H](C)C(=O)N[C@@H](CC(=O)O)C(=O)N[C@H](C(=O)N[C@@H](Cc1ccccc1)C(=O)N[C@H](C(N)=O)[C@@H](C)CC)[C@@H](C)CC)[C@@H](C)O` [Compound 22] (Palmitoyl-TAFRSSREKRRSADIFI-NH2), for which the EC50 lay within 1 to 500 nM.

With `CCCCCCCCCCCOCCCC(=O)N[C@H](C(=O)N[C@H](C(=O)N[C@@H](Cc1ccccc1)C(=O)N[C@@H](CCCNC(=N)N)C(=O)N[C@@H](CO)C(=O)N[C@@H](CO)C(=O)N[C@@H](CCCNC(=N)N)C(=O)N[C@@H](CCC(=O)O)C(=O)N[C@@H](CCCCN)C(=O)N[C@@H](CCCNC(=N)N)C(=O)N[C@@H](CCCNC(=N)N)C(=O)N[C@@H](CO)C(=O)N[C@@H](C)C(=O)N[C@@H](CC(=O)O)C(=O)N[C@H](C(=O)N[C@@H](Cc1ccccc1)C(=O)N[C@H](C(N)=O)[C@@H](C)CC)[C@@H](C)CC)C(C)C)[C@@H](C)O` [Compound 60] (X1-TVFRSSREKRRSADIFI-NH2), the EC50 fell in the range of 1 to 500 nM.

Regarding `CCCCCCCCCCCCCCCC(=O)N[C@H](C(=O)N[C@H](C(=O)N[C@@H](Cc1ccccc1)C(=O)N[C@@H](CCCNC(=N)N)C(=O)N[C@@H](CO)C(=O)N[C@@H](CO)C(=O)N[C@@H](CCCNC(=N)N)C(=O)N[C@@H](C)C(=O)N[C@@H](CCCCN)C(=O)N[C@@H](CCCNC(=N)N)C(=O)N[C@@H](CCCNC(=N)N)C(=O)N[C@@H](CO)C(=O)N[C@@H](C)C(=O)N[C@@H](CC(=O)O)C(=O)N[C@H](C(=O)N[C@@H](Cc1ccccc1)C(=O)N[C@H](C(N)=O)[C@@H](C)CC)[C@@H](C)CC)C(C)C)[C@@H](C)O` [Compound 41] (Palmitoyl-TVFRSSRAKRRSADIFI-NH2), the EC50 lay in the range of 1 to 500 nM.

For `CCCCCCCCCCCCCCCC(=O)N[C@H](C(=O)N[C@H](C(=O)N[C@@H](Cc1ccccc1)C(=O)N[C@@H](CCCNC(=N)N)C(=O)N[C@@H](CO)C(=O)N[C@@H](CO)C(=O)N[C@@H](CCCNC(=N)N)C(=O)N[C@@H](CCC(=O)O)C(=O)N[C@@H](CCCCN)C(=O)N[C@@H](CCCNC(=N)N)C(=O)N[C@@H](CCCNC(=N)N)C(=O)N[C@@H](CO)C(=O)N[C@@H](C)C(=O)N[C@@H](CC(=O)O)C(=O)N[C@H](C(=O)N[C@@H](C)C(=O)N[C@H](C(N)=O)[C@@H](C)CC)[C@@H](C)CC)C(C)C)[C@@H](C)O` [Compound 39] (Palmitoyl-TVFRSSREKRRSADIAI-NH2), the concentration giving a half-maximal response (EC50) lay in the range of 1 to 500 nM.

Turning to `CCCCCCCCCCCCCCCC(=O)N[C@H](C(=O)N[C@H](C(=O)N[C@@H](Cc1ccccc1)C(=O)N[C@@H](CCCNC(=N)N)C(=O)N[C@@H](CO)C(=O)N[C@@H](C)C(=O)N[C@@H](CCCNC(=N)N)C(=O)N[C@@H](CCC(=O)O)C(=O)N[C@@H](CCCCN)C(=O)N[C@@H](CCCNC(=N)N)C(=O)N[C@@H](CCCNC(=N)N)C(=O)N[C@@H](CO)C(=O)N[C@@H](C)C(=O)N[C@@H](CC(=O)O)C(=O)N[C@H](C(=O)N[C@@H](Cc1ccccc1)C(=O)N[C@H](C(N)=O)[C@@H](C)CC)[C@@H](C)CC)C(C)C)[C@@H](C)O` [Compound 28] (Palmitoyl-TVFRSAREKRRSADIFI-NH2), the EC50 was 1 to 500 nM.
